A short description of data set [1]: Cytotoxicity colorimetric assay, NIH/3T3. Type of data set: cell-based, mouse. The note with it: mouse, NIH/3T3 cells; one hour in serum-free media. How it is done: (§1) Cytotoxicity of Compound A was evaluated in a colorimetric assay using a transformed human liver cell line (HepG2, HB-8065) and an embryonic mouse cell line (NIH/3T3 cells, CRL-1658). This assay measures the bioreduction of a novel tetrazolium compound to a soluble formazan product by viable cells. HepG2 cells were seeded in 96 well plates at 2×10^4 cells/well in MEM medium with 10% fetal bovine serum (FBS) 24 hours prior to use. NIH/3T3 cells were seeded in 96 well plates at 2×10^4 cells/well in DMEM medium with 10% bovine calf serum (BCS) 24 hours prior to use. Cell monolayers were rinsed in serum-free media and incubated for one hour with Compound A in serum-free media. After incubation, the media was replaced with serum supplemented media and live cells were measured using the Cell Titer 96 Aqueous […] Assay kit (Promega, Madison, Wis.). EC50 values were determined using a four parameter logistic equation: Y=Bottom+(Top-Bottom)/(1+10^((LogEC50−X)*HillSlope)).

The test system of another data set is NIH/3T3 cells. Briefly: Cytotoxicity colorimetric assay, NIH/3T3. Type of data set: cell-based, mouse. As to conditions: vs S. aureus MIC. How it is done:
as §1

The next data set relates to S. aureus ATCC27660. Description: Time-kill study. Type of data set: cell-based. How it is done:
Time-kill studies of Compound A versus E. coli ATCC25922, E. coli (lab strain) D31, and S. aureus ATCC27660 were determined in a standard protocol by measuring the time it takes to reduce the initial inoculums 3 log units. Three ml of cation-adjusted Mueller-Hinton medium was inoculated with 20 μL of frozen bacterial stock and incubated at 37° C. on a shaker platform (250 rpm) overnight. […] Compound A stock solution was prepared at 10 mg/mL in DMSO. Time points were collected and viable bacteria were counted on MH Agar plates after an 18 hour incubation. […] See, FIG. 1A and FIG. 1B.

A further data set in a line: Pharmacokinetics in rats. The note with it: Crl:CD (SD), plasma, iv; rat, 5 mg/kg, i.v. bolus. The class given is in vivo. How it is done:
Crl:CD (SD) rats were administered Compound A by i.v. bolus injection at the indicated dosages. Plasma was prepared from blood samples taken at 9 time points (n=3) over 28 hours. Compound levels were determine by HPLC-MS/MS. All animals were fitted with two jugular vein cannula (JVC), one each for dose administration and blood collection. Each route of administration was dosed as N=3. Animals were supplied with a commercial rodent diet and water ad libitum. Each rat received a bolus dosed via the appropriate route of administration at time zero on the day of dosing.
Each blood sample was collected from the rats via a JVC and placed into chilled polypropylene tubes containing sodium EDTA as an anticoagulant. Samples were centrifuged at a temperature of 4° C. and at a speed of 13,000 rpm for 5 minutes. Samples were maintained chilled throughout processing. Each plasma sample was then transferred into labeled polypropylene tubes, placed on dry ice, and stored in a freezer set to maintain −60° C. to −80° C.
Plasma study samples were extracted and analyzed using a previously developed method. A single standard curve and six replicates of quality control samples at three concentrations were extracted using DMSO containing 0.1% formic acid. Plasma samples (50 μL) were added to 150 μL solvent and centrifuged. Supernatants were analyzed by LC/MSMS using a Perkin Elmer series 200 micropump and PE Sciex API4000 Electrospray mass spectrometer. Standard curves were prepared at concentrations of 10000, 5000, 1000, 500, 250, 100, 50 and 25 ng/mL. Quality control samples were prepared at concentrations of 5000, 500, and 50 ng/mL. The standard curve and quality control samples were prepared from independently prepared stock solutions. At least ⅝ of standards must have accuracy within ±15%, except at the LLOQ where ±20% is acceptable. Two thirds of the batch QCs must have accuracy within ±15% of nominal, and at least one QC must pass at each level in order for the run to be accepted.
Individual plasma concentration versus time data for Compound A was subjected to non-compartmental analysis using the pharmacokinetic program WinNonlin v4.1. Plasma concentrations below the limit of quantitation (25 ng/ml) were assigned a value of zero for pharmacokinetic analysis. Nominal dosing concentrations were used in all calculations.

The test system of another data set is HepG2. Description: Cytotoxicity colorimetric assay, HepG2. The class given is cell-based, human. The note with it: vs S. aureus MIC.
Data set [2] in a line: Cytotoxicity colorimetric assay, HepG2. As to conditions: human, HepG2 cells; one hour in serum-free media. The class given is cell-based, human.
Method: This assay measures the bioreduction of a novel tetrazolium compound to a soluble formazan product by viable cells. HepG2 cells were seeded in 96 well plates at 2×10^4 cells/well in MEM medium with 10% fetal bovine serum (FBS) 24 hours prior to use. NIH/3T3 cells were seeded in 96 well plates at 2×10^4 cells/well in DMEM medium with 10% bovine calf serum (BCS) 24 hours prior to use. […] After incubation, the media was replaced with serum supplemented media and live cells were measured using the Cell Titer 96 Aqueous Non-Proliferation Assay kit (Promega, Madison, Wis.). EC50 values were determined using a four parameter logistic equation: Y=Bottom+(Top-Bottom)/(1+10^((LogEC50−X)*HillSlope)).
The test system of a further data set is MSSA 27660. Briefly: Mouse peritonitis/sepsis model against MSSA 27660. The class given is in vivo.
Data set [3] is described as follows: Hemolysis assay using human erythrocytes. The class given is cell-based. The note with it: human, pH 7.4.
Method: (§2) Pooled whole human blood was centrifuged to separate the red blood cells (RBC). The isolated RBCs were rinsed and diluted in Tris-buffered saline (TBS buffer, pH 7.4) to obtain a 0.22% RBC stock suspension. 5 μL of Compound A stock solution was added to 45 μL of RBC suspension and incubated with shaking for 1 hour at 37° C. At the conclusion of the incubation time, samples were centrifuged and 30 μL of the supernatant was added to 100 μL of water. OD414 measurements were read for hemoglobin concentration. […] EC50 values were determined as described above.
Data set [4] deals with human erythrocytes (RBCs). Briefly: Hemolysis assay using human erythrocytes. Type of data set: cell-based. As to conditions: vs S. aureus MIC.
Method: as §2

Where a name gives a salt, the structure may show the parent alone.

In the case of `N=C(N)NCCCCC(=O)Nc1cc(C(F)(F)F)cc(NC(=O)c2cc(C(=O)Nc3cc(C(F)(F)F)cc(NC(=O)CCCCNC(=N)N)c3O[C@H]3CCNC3)ncn2)c1O[C@H]1CCNC1` [Compound A, pyrimidine-4,6-dicarboxylic acid bis-{[3-(5-guanidino-pentanoylamino)-2-((R)-pyrrolidin-3-yloxy)-5-trifluoromethyl-phenyl]-amide}tetrahydrochloride], the EC50 at 1 h in data set [1] amounted to 430 µg/mL. Further, the “Selectivity (EC50/MIC) 3T3” value with NIH/3T3 cells is on record as 430. Besides, in the data set with S. aureus ATCC27660 (2×MIC), the “time to reduction of 3 log10 units in the initial inoculum” value is 5 hours. The compound also yielded an MIC against S. aureus ATCC27660 (Staphylococcus aureus, ATCC27660, MIC used in time-kill study) of 1 µg/mL. The “re-growth in the cultures” value with S. aureus ATCC27660 (over 72 hours at 1×MIC) is “No re-growth”. In “Pharmacokinetics in rats”, this compound had a Cmax of 89.2 µg/mL, a Vd of 0.11 L/kg, a clearance of 0.467 mL/min/kg and a half-life of 3 h. In the data set with HepG2, the “Selectivity (EC50/MIC) HepG2” value was 1,031. In data set [2], the midpoint of the response, the EC50 at 1 h, lay at 1030 µg/mL. Moreover, in the data set on MSSA 27660, the efficacy in vivo entry was “efficacious”. The compound also had an EC50 at 1 h in data set [3] of over 500 µg/mL. The “Selectivity (EC50/MIC) RBCs” value in [4] is on record as over 500.

The record behind these values is patent publication US8278309B2, “Synthetic mimetics of host defense and uses thereof” (priority 2008, dated 2012).
